Results: US7674613B2, “Live bacterium preparation containing lactic acid bacterium as active ingredient and food containing lactic acid bacterium” (Frente International Co., Ltd., priority 2002, dated 2010)

Tests used:
[1] = system: Streptococcus mutans MT 8148 strain; experiment: Test Example 4: number of viable S. mutans with oligosaccharides and sugar alcohols, with or without L. salivarius TI 2711; format: cell-based; settings: 5% addition, aerobic 37° C. 24 hours
Description: (§1) 5% each of xylitol, erythritol and sorbitol as sugar alcohols, and fructo-oligosaccharide and kestose as oligosaccharides were each added to a liquid medium consisting of GAM bouillon (Nissui) as a base medium and containing 0.7% glucose and 3% sucrose, and each medium was inoculated with 1×10^7 CFU/ml of the Streptococcus mutans MT 8148 strain. Then, aerobic culture was performed at 37° C. for 24 hours.
(§2) On the other hand, 1×10^7 CFU/ml of the Streptococcus mutans MT 8148 strain was inoculated to the aforementioned medium containing 5% of each sugar alcohol or oligosaccharide, and 1×10^7 CFU/ml of the Lactobacillus salivarius TI 2711 strain was further inoculated to the medium. Then, aerobic culture was similarly performed at 37° C. for 24 hours. After completion of the culture, the cell numbers of Streptococcus mutans MT 8148 strain and amounts of insoluble glucan were determined (according to the methods described in Test Example 1) for the both types of culture.

[2] = system: Streptococcus mutans MT 8148 strain; experiment: Test Example 4: insoluble glucan production by S. mutans with oligosaccharides and sugar alcohols, with or without L. salivarius TI 2711; format: cell-based
Description: as §1, §2

[3] = With inoculation of L. salivarius TI 2711 1×10^7 CFU/ml
[4] = Without inoculation of L. salivarius, control base medium 4.0 × 10^5

OC[C@@H](O)[C@@H](O)CO [Erythritol, erythritol]
Number of viable cells of S. mutans (CFU/ml) [1, 3]: 1.0 × 10^4 CFU/ml
Number of viable cells of S. mutans (CFU/ml) [1, 4]: 1.0 × 10^5 CFU/ml
inhibition of the production of insoluble glucan ([2]; erythritol alone, 5% addition): about 60%
inhibition of the production of insoluble glucan ([2]; mixed culture inoculated with Lactobacillus salivarius TI 2711 strain, amount without inoculation taken as 100%): 90%

OC[C@H]1O[C@@](CO)(OC[C@@]2(O[C@H]3O[C@H](CO)[C@@H](O)[C@H](O)[C@H]3O)O[C@H](CO)[C@@H](O)[C@@H]2O)[C@@H](O)[C@@H]1O [Kestose, kestose]
Number of viable cells of S. mutans (CFU/ml) [1, 3]: 2.0 × 10^5 CFU/ml
Number of viable cells of S. mutans (CFU/ml) [1, 4]: 5.0 × 10^5 CFU/ml

OC[C@@H](O)[C@@H](O)[C@H](O)[C@@H](O)CO [Sorbitol, sorbitol]
Number of viable cells of S. mutans (CFU/ml) [1, 3]: 3.0 × 10^5 CFU/ml
Number of viable cells of S. mutans (CFU/ml) [1, 4]: 4.0 × 10^5 CFU/ml

OC[C@@H](O)[C@H](O)[C@@H](O)CO [Xylitol, xylitol]
Number of viable cells of S. mutans (CFU/ml) [1, 3]: 5.0 × 10^5 CFU/ml
Number of viable cells of S. mutans (CFU/ml) [1, 4]: 4.0 × 10^5 CFU/ml
